Assay results reported in PubChem BioAssay AID2060902 (Molecular Pharmacology Branch, DTP, NCI, 2025).

Tested on: 485368-065-R3-J5-PDC spheroids with HUVEC/MSC, viability
Assay: Anticancer human tumor 485368-065-R3-J5-PDC patient-derived pancreatic carcinoma cell line growth inhibition [RAS]
Conditions: for IC50: curve of first compound; for viability, T/C: stronger effect = lower value
Description: RAS pathway inhibitors in Combinations in Complex Spheroids
A high-throughput screen of multi-cell type tumor spheroids was designed to identify active combinations of RAS pathway inhibitors and targeted small molecules. Complex spheroids include a stromal component modeled by human endothelial cells (HUVEC) and fibroblasts modeled by human mesenchymal stem cells (MSCs). The concentration ranges selected for each drug and investigational agent were based upon clinically achievable concentrations if the clinical Cmax of the agent was known.
Compounds. The drugs and investigational agents: abemaciclib (NSC768073), cobimetinib (NSC768068), divarasib (GDC6063, NSC841802), docetaxel (NSC628503), GDC-1971 (RLY-1971, NSC841576), gemcitabine (NSC613327), inavolisib (NSC800729), ipatasertib (NSC767898), KB-0742 (NSC834161), MRTX-1133 (NSC836407), osimertinib (NSC779217), RMC-4630 (NSC839698), RMC-6236 (NSC851965), RMC-6291 (NSC852671), Ro-3306 (NSC812927), sapanisertib (NSC764658), SN-38 (NSC673596), staurosporine (NSC755774), SY5609 (NSC837396), and tovorafenib (DAY101, NSC766906), were obtained from the National Cancer Institute (NCI) Developmental Therapeutics Program Chemical Repository. The FDA-approved anticancer drug set is available from the NCI Developmental Therapeutics Program. […] The stock solutions were prepared in dimethyl sulfoxide (DMSO, Sigma-Aldrich, St. Louis, MO, cat. D2650) at 800-fold the tested concentration and stored at -70 degrees C prior to their use. All drugs and investigational agents were tested over a range starting from a high concentration at or near the clinical Cmax and decreasing in half-log increments. If the clinical Cmax for an agent had not been determined, the highest concentration tested was 10 microM.
Cell Culture. All cells were maintained in an incubator at 37 degrees C and 5% CO2 with 95% humidity. The PDC lines were cultured according to standard operating procedures established by the NCI PDMR. All PDCs were thawed and cultured in Matrigel-coated flasks prepared with a working solution of 1X Ham's F-12 nutrient mix, without supplementation (Invitrogen, Waltham, MA, cat. 11765054), 100 U/mL penicillin-streptomycin (Invitrogen, cat. 15140122), and 2.5% Matrigel (Corning Inc., Corning, NY, cat. 354248) for the first three passages. The 362531-283-R-J2-PDC and 782815-120-R-J1-PDC lines were cultured in 6C/Colon 1B media, which includes advanced DMEM/F-12 (Thermo Fisher Scientific, cat. 12634028), 10 mM HEPES (Thermo Fisher Scientific, cat. 15630080), 1X GlutaMAX supplement (Thermo Fisher Scientific, cat. 35050061), 0.1 mg/mL primocin (InvivoGen, San Diego, CA, cat. ant-pm-2), 10% defined fetal bovine serum, heat inactivated (HyClone Laboratories Inc., Logan, UT, cat. SH30070.03HI), 50% L-WRN conditioned media (ATCC, cat. CRL-3276), 1.25 mM N-Acetyl-L-cysteine (Sigma-Aldrich, cat. A9165), 10 mM nicotinamide (Sigma-Aldrich, cat. N0636), 1X B-27 supplement (Thermo Fisher Scientific, cat. 17504044), 1X N-2 supplement (Thermo Fisher Scientific, cat. 17502048), 50 ng/mL human EGF (Thermo Fisher Scientific, cat. PHG0311), and 10 microM Y-27632 dihydrochloride (Tocris Bioscience, cat. 1254). The K12877-001-R-J1-PDC line was cultured in 6I media, which includes all 6C/Colon 1B media plus 10 ng/mL human FGF-10 (PeproTech, cat. 100-26), 1 ng/mL human FGF-2 (PeproTech, cat. 100-18B), 1 µM prostaglandin E2 (Tocris Bioscience, cat. 2296), […] hydrocortisone (Sigma-Aldrich, cat. H4001), and […] bovine insulin (Sigma-Aldrich, cat. I6634). The K86415-001-R-J1-PDC line was cultured in 6D media, which includes all 6C/Colon 1B media components minus the L-WRN conditioned media. The 485176-168-R4-J1-PDC was cultured in PANC media, which includes all 6C/Colon 1B media plus 100 ng/mL human FGF-10 (PeproTech, cat. 100-26), 500 nM SB-431542 (Selleckchem, cat. S1067), and 10 nM gastrin (Tocris Bioscience, cat. 3006). […]

[1] = second compound 0.0316 µM, first compound 0.0316 µM
[2] = second compound 0.0316 µM, first compound 0.1 µM
[3] = second compound 0.0316 µM, first compound 0.316 µM
[4] = second compound 0.0316 µM, first compound 1 µM
[5] = second compound 0.1 µM, first compound 0.0316 µM
[6] = second compound 0.1 µM, first compound 0.1 µM
[7] = second compound 0.1 µM, first compound 0.316 µM
[8] = second compound 0.1 µM, first compound 1 µM
[9] = second compound 0.316 µM, first compound 0.0316 µM
[10] = second compound 0.316 µM, first compound 0.1 µM
[11] = second compound 0.316 µM, first compound 0.316 µM
[12] = second compound 0.316 µM, first compound 1 µM
[13] = second compound 1 µM, first compound 0.0316 µM
[14] = second compound 1 µM, first compound 0.1 µM
[15] = second compound 1 µM, first compound 0.316 µM
[16] = second compound 1 µM, first compound 1 µM
[17] = second compound 3.16 µM, first compound 0.0316 µM
[18] = second compound 3.16 µM, first compound 0.1 µM
[19] = second compound 3.16 µM, first compound 0.316 µM
[20] = second compound 3.16 µM, first compound 1 µM
[21] = second compound 10 µM, first compound 0.0316 µM
[22] = second compound 10 µM, first compound 0.1 µM
[23] = second compound 10 µM, first compound 0.316 µM
[24] = second compound 10 µM, first compound 1 µM
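Note: spheroids exposed to agents for seven days before readout.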

CC(Nc1ccc2c(c1)OCCn1cc(N3C(=O)OCC3C(F)F)nc1-2)C(N)=O (centres undefined) + C#Cc1c(F)ccc2cc(O)cc(-c3ncc4c(N5CC6CCC(C5)N6)nc(OCC56CCCN5CC(F)C6)nc4c3F)c12
IC50 (second compound 0.0316 µM): > 10000 nM | IC50 (second compound 0.1 µM): > 10000 nM | IC50 (second compound 0.316 µM): 9820 nM | IC50 (second compound 1 µM): > 10000 nM | IC50 (second compound 3.16 µM): 1610 nM | IC50 (second compound 10 µM): < 31.6 nM | viability, T/C [1]: 95.9% | viability, T/C [2]: 93.4% | viability, T/C [3]: 85.4% | viability, T/C [4]: 80.1% | viability, T/C (second compound 0.0316 µM, first compound 3.16 µM): 74.5% | viability, T/C (second compound 0.0316 µM, first compound 10 µM): 51.9% | viability, T/C [5]: 101% | viability, T/C [6]: 90.3% | viability, T/C [7]: 82.4% | viability, T/C [8]: 91.2% | viability, T/C (second compound 0.1 µM, first compound 3.16 µM): 77.9% | viability, T/C (second compound 0.1 µM, first compound 10 µM): 57.2% | viability, T/C [9]: 92.7% | viability, T/C [10]: 93.5% | viability, T/C [11]: 91.5% | viability, T/C [12]: 85.7% | viability, T/C (second compound 0.316 µM, first compound 3.16 µM): 81.7% | viability, T/C (second compound 0.316 µM, first compound 10 µM): 48.8% | viability, T/C [13]: 83.4% | viability, T/C [14]: 85.8% | viability, T/C [15]: 90.7% | viability, T/C [16]: 72.6% | viability, T/C (second compound 1 µM, first compound 3.16 µM): 69.1% | viability, T/C (second compound 1 µM, first compound 10 µM): 51.5% | viability, T/C [17]: 73.4% | viability, T/C [18]: 56.2% | viability, T/C [19]: 54.5% | viability, T/C [20]: 60.5% | viability, T/C (second compound 3.16 µM, first compound 3.16 µM): 46.8% | viability, T/C (second compound 3.16 µM, first compound 10 µM): 32.8% | viability, T/C [21]: 33.8% | viability, T/C [22]: 31% | viability, T/C [23]: 24.6% | viability, T/C [24]: 25.9% | viability, T/C (second compound 10 µM, first compound 3.16 µM): 21% | viability, T/C (second compound 10 µM, first compound 10 µM): 18.6%

O=C(c1ccc(F)c(F)c1Nc1ccc(I)cc1F)N1CC(O)([C@@H]2CCCCN2)C1 + C#Cc1c(F)ccc2cc(O)cc(-c3ncc4c(N5CC6CCC(C5)N6)nc(OCC56CCCN5CC(F)C6)nc4c3F)c12
IC50 (second compound 0.0316 µM): 31.5 nM | IC50 (second compound 0.1 µM): 33.7 nM | IC50 (second compound 0.316 µM): 37.5 nM | IC50 (second compound 1 µM): 26.3 nM | IC50 (second compound 3.16 µM): 8.98 nM | IC50 (second compound 10 µM): < 3.16 nM | viability, T/C (second compound 0.0316 µM, first compound 0.00316 µM): 90.3% | viability, T/C (second compound 0.0316 µM, first compound 0.01 µM): 65.9% | viability, T/C [1]: 49.5% | viability, T/C [2]: 31.9% | viability, T/C [3]: 28.1% | viability, T/C [4]: 8.9% | viability, T/C (second compound 0.1 µM, first compound 0.00316 µM): 80.8% | viability, T/C (second compound 0.1 µM, first compound 0.01 µM): 68.9% | viability, T/C [5]: 50% | viability, T/C [6]: 32.3% | viability, T/C [7]: 26% | viability, T/C [8]: 9.17% | viability, T/C (second compound 0.316 µM, first compound 0.00316 µM): 91.1% | viability, T/C (second compound 0.316 µM, first compound 0.01 µM): 73% | viability, T/C [9]: 46.6% | viability, T/C [10]: 39.4% | viability, T/C [11]: 25.4% | viability, T/C [12]: 9% | viability, T/C (second compound 1 µM, first compound 0.00316 µM): 87.4% | viability, T/C (second compound 1 µM, first compound 0.01 µM): 62% | viability, T/C [13]: 48.6% | viability, T/C [14]: 31.1% | viability, T/C [15]: 22.5% | viability, T/C [16]: 8.96% | viability, T/C (second compound 3.16 µM, first compound 0.00316 µM): 58.8% | viability, T/C (second compound 3.16 µM, first compound 0.01 µM): 50% | viability, T/C [17]: 38.7% | viability, T/C [18]: 24% | viability, T/C [19]: 19.9% | viability, T/C [20]: 5.77% | viability, T/C (second compound 10 µM, first compound 0.00316 µM): 45.1% | viability, T/C (second compound 10 µM, first compound 0.01 µM): 29.8% | viability, T/C [21]: 26.5% | viability, T/C [22]: 17.2% | viability, T/C [23]: 11.2% | viability, T/C [24]: 3.65%
